Data published in patent US10105373B2, “Fused triterpene compounds and uses thereof” (PIRAMAL ENTERPRISES LIMITED, priority 2014, dated 2018).

Molecular target: T1, RORγt receptor protein (Homo sapiens, UniProt P51449)
T1 sequence (P51449 1-497 isoform P51449-2): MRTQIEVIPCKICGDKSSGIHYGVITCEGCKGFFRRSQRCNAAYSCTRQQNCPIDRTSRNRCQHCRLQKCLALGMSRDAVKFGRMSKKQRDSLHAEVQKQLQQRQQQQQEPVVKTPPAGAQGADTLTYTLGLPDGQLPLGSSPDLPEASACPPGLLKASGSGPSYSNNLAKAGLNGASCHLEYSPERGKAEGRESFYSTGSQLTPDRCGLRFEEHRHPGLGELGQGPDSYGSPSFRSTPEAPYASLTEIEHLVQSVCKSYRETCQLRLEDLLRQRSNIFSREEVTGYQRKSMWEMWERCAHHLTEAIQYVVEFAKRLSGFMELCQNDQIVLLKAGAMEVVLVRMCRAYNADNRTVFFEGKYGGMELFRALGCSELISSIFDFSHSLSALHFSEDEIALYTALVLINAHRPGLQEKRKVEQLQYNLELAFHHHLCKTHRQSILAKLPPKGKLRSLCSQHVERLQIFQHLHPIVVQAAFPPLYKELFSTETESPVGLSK
Assay: General RORγ binding assay (radioligand binding, [3H]25-hydroxy cholesterol displacement)
Settings: displacement of [3H]25-hydroxy cholesterol from 200 ng RORγt receptor protein, 1 h room temperature; test concentrations 0.01-3 μM, concentration for the % not stated
Procedure: General RORγ Binding Assay:
The RORγ binding of compounds of the present invention as described herein to RORγ was measured. For the radioligand binding assay, various concentrations of the test compounds were prepared (0.01 μM, 0.03 μM, 0.1 μM, 0.3 μM, 1 μM and 3 μM) and the samples were incubated with 200 ng of RORγt receptor protein in the presence of the [^3H]25-hydroxy cholesterol and the mixture was incubated at room temperature for 1 h. An extent of displacement of the radioligand was measured after harvesting the reaction mixture on filter plate reader using TopCount (Perkin Elmer) for radioactivity. The compounds of present invention were tested for RORγ binding using the above assay procedure and the results obtained are given in the below Table 1.

| Compound | ROR binding (%) |
| --- | --- |
| Cc1nc(N2CCOCC2)c2c(n1)C(C)(C)[C@@H]1CC[C@]3(C)[C@H](CC=C4[C@@H]5[C@@H](C)[C@H](C)CC[C@]5(C(=O)O)CC[C@]43C)[C@@]1(C)C2 [Example 55, (1S,2R,4aS,6aS,6bR,8aR,14aR,14bR,16bS)-1,2,6a,6b,9,9,11,14a-octamethyl-13-morpholino-1,2,3,4,4a,5,6,6a,6b,7,8,8a,9,14,14a,14b,15,16b-octadecahydrochryseno[1,2-g]quinazoline-4a-carboxylic acid] | ++ (‘++’ corresponds to 50 to 70% binding of the compounds of present invention) |
| C[C@H]1[C@H](C)CC[C@]2(C(=O)O)CC[C@]3(C)C(=CC[C@@H]4[C@@]5(C)Cc6cc(C(N)=O)cnc6C(C)(C)[C@@H]5CC[C@]43C)[C@H]12 [Example 94, (1S,2R,4aS,6aS,6bR,8aR,14aR,14bR,16bS)-12-carbamoyl-1,2,3,4,4a,5,6,6a,6b,7,8,8a,9,14,14a,14b,15,16b-octadecahydro-1,2,6a,6b,9,9,14a-heptamethylchryseno[1,2-g]quinoline-4a-carboxylic acid] | ++ (‘++’ corresponds to 50 to 70% binding of the compounds of present invention) |
| CCS(=O)(=O)c1ncc2c(n1)C(C)(C)[C@@H]1CC[C@]3(C)[C@H](CC=C4C5[C@@H](C)[C@H](C)CC[C@]5(C(=O)O)CC[C@]43C)[C@@]1(C)C2 (stereo partly drawn) [Example 78, (1S,2R,4aS,6aS,6bR,8aR,14aR,14bR)-11-(ethylsulfonyl)-1,2,6a,6b,9,9,14a-heptamethyl-1,2,3,4,4a,5,6,6a,6b,7,8,8a,9,14,14a,14b,15,16b-octadecahydrochryseno[1,2-g]quinazoline-4a-carboxylic acid] | +++ (‘+++’ corresponds to more than 80% binding of the compounds of present invention) |
| Cc1ncc2c(n1)C(C)(C)[C@@H]1CC[C@]3(C)[C@H](CC=C4[C@@H]5[C@@H](C)[C@H](C)CC[C@]5(C(=O)O)CC[C@]43C)[C@@]1(C)C2 [Example 59, (1S,2R,4aS,6aS,6bR,8aR,14aR,14bR,16bS)-1,2,6a,6b,9,9,11,14a-octamethyl-1,2,3,4,4a,5,6,6a,6b,7,8,8a,9,14,14a,14b,15,16b-octadecahydrochryseno[1,2-g]quinazoline-4a-carboxylic acid] | +++ (‘+++’ corresponds to more than 80% binding of the compounds of present invention) |
| COc1ncnc2c1C[C@]1(C)[C@H]3CC=C4[C@@H]5[C@@H](C)[C@H](C)CC[C@]5(C(=O)O)CC[C@@]4(C)[C@]3(C)CC[C@H]1C2(C)C [Example 23, (1S,2R,4aS,6aS,6bR,8aR,14aR,14bR,16bS)-13-methoxy-1,2,6a,6b,9,9,14a-heptamethyl-1,2,3,4,4a,5,6,6a,6b,7,8,8a,9,14,14a,14b,15,16b-octadecahydrochryseno[1,2-g]quinazoline-4a-carboxylic acid] | ++ (‘++’ corresponds to 50 to 70% binding of the compounds of present invention) |
| Cc1nc(N(C)C)c2c(n1)C(C)(C)[C@@H]1CC[C@]3(C)[C@H](CC=C4[C@@H]5[C@@H](C)[C@H](C)CC[C@]5(C(=O)O)CC[C@]43C)[C@@]1(C)C2 [Example 38, (1S,2R,4aS,6aS,6bR,8aR,14aR,14bR,16bS)-13-(dimethylamino)-1,2,6a,6b,9,9,11,14a-octamethyl-1,2,3,4,4a,5,6,6a,6b,7,8,8a,9,14,14a,14b,15,16b-octadecahydrochryseno[1,2-g]quinazoline-4a-carboxylic acid] | ++ (‘++’ corresponds to 50 to 70% binding of the compounds of present invention) |
| Cc1nc(N2CCCC2)c2c(n1)C(C)(C)[C@@H]1CC[C@]3(C)[C@H](CC=C4[C@@H]5[C@@H](C)[C@H](C)CC[C@]5(C(=O)O)CC[C@]43C)[C@@]1(C)C2 [Example 45, (1S,2R,4aS,6aS,6bR,8aR,14aR,14bR,16bS)-1,2,6a,6b,9,9,11,14a-octamethyl-13-(pyrrolidin-1-yl)-1,2,3,4,4a,5,6,6a,6b,7,8,8a,9,14,14a,14b,15,16b-octadecahydrochryseno[1,2-g]quinazoline-4a-carboxylic acid] | ++ (‘++’ corresponds to 50 to 70% binding of the compounds of present invention) |
| Cc1nc(O)c2c(n1)C(C)(C)[C@@H]1CC[C@]3(C)[C@H](CC=C4[C@@H]5[C@@H](C)[C@H](C)CC[C@]5(C(=O)O)CC[C@]43C)[C@@]1(C)C2 [Example 31, (1S,2R,4aS,6aS,6bR,8aR,14aR,14bR,16bS)-13-hydroxy-1,2,6a,6b,9,9,11,14a-octamethyl-1,2,3,4,4a,5,6,6a,6b,7,8,8a,9,14,14a,14b,15,16b-octadecahydrochryseno[1,2-g]quinazoline-4a-carboxylic acid] | ++ (‘++’ corresponds to 50 to 70% binding of the compounds of present invention) |
| C[C@H]1[C@H](C)CC[C@]2(C(=O)O)CC[C@]3(C)C(=CC[C@@H]4[C@@]5(C)Cc6cnc(S(C)(=O)=O)nc6C(C)(C)[C@@H]5CC[C@]43C)[C@H]12 [Example 81, (1S,2R,4aS,6aS,6bR,8aR,14aR,14bR,16bS)-1,2,6a,6b,9,9,14a-heptamethyl-11-(methylsulfonyl)-1,2,3,4,4a,5,6,6a,6b,7,8,8a,9,14,14a,14b,15,16b-octadecahydrochryseno [1,2-g]quinazoline-4a-carboxylic acid] | +++ (‘+++’ corresponds to more than 80% binding of the compounds of present invention) |
| C[C@H]1[C@H](C)CC[C@]2(C(=O)O)CC[C@]3(C)C(=CC[C@@H]4[C@@]5(C)Cc6cncnc6C(C)(C)[C@@H]5CC[C@]43C)[C@H]12 [Example 6, (1S,2R,4aS,6aS,6bR,8aR,14aR,14bR,16bS)-1,2,6a,6b,9,9,14a-heptamethyl-1,2,3,4,4a,5,6,6a,6b,7,8,8a,9,14,14a,14b,15,16b-octadecahydrochryseno[1,2-g]quinazoline-4a-carboxylic acid] | +++ (‘+++’ corresponds to more than 80% binding of the compounds of present invention) |
| C[C@H]1[C@H](C)CC[C@]2(C(=O)O)CC[C@]3(C)C(=CC[C@@H]4[C@@]5(C)Cc6c(N(C)C)ncnc6C(C)(C)[C@@H]5CC[C@]43C)[C@H]12 [Example 27, (1S,2R,4aS,6aS,6bR,8aR,14aR,14bR,16bS)-13-(dimethylamino)-1,2,6a,6b,9,9,14a-hepta methyl-1,2,3,4,4a,5,6,6a,6b,7,8,8a,9,14,14a,14b,15,16b-octadecahydrochryseno[1,2-g]quinazoline-4a-carboxylic acid] | ++ (‘++’ corresponds to 50 to 70% binding of the compounds of present invention) |
| C[C@H]1[C@H](C)CC[C@]2(C(=O)O)CC[C@]3(C)C(=CC[C@@H]4[C@@]5(C)Cc6c(N7CCOCC7)ncnc6C(C)(C)[C@@H]5CC[C@]43C)[C@H]12 [Example 14, (1S,2R,4aS,6aS,6bR,8aR,14aR,14bR,16bS)-1,2,6a,6b,9,9,14a-heptamethyl-13-morpholino-1,2,3,4,4a,5,6,6a,6b,7,8,8a,9,14,14a,14b,15,16b-octadecahydrochryseno[1,2-g]quinazoline-4a-carboxylic acid] | ++ (‘++’ corresponds to 50 to 70% binding of the compounds of present invention) |
| C[C@H]1[C@H](C)CC[C@]2(C(=O)O)CC[C@]3(C)C(=CC[C@@H]4[C@@]5(C)Cc6cccnc6C(C)(C)[C@@H]5CC[C@]43C)[C@H]12 [Example 84, (1S,2R,4aS,6aS,6bR,8aR,14aR,14bR,16bS)-1,2,3,4,4a,5,6,6a,6b,7,8,8a,9,14,14a,14b,15,16b-octadecahydro-1,2,6a, 6b,9,9,14a-heptamethylchryseno[1,2-g]quinoline-4a-carboxylic acid] | ++ (‘++’ corresponds to 50 to 70% binding of the compounds of present invention) |
